Reference: PMC11302339, “A series of pyrimidine-based antifungals with anti-mold activity disrupt ER function in Aspergillus fumigatus” (Microbiology Spectrum, 2024)
≈ marks a conversion by molar mass, not a printed value. Like-named read-outs stand apart in the source and are kept apart here.

Experiments:
A. fumigatus CEA10 = assay: ER stress interactions on GMM plates; assay type: cell-based, Aspergillus fumigatus; conditions: 1 µg/mL 1 on GMM
Experimental: For Aspergillus fumigatus, 5 µL of 1 × 10^4 CEA10 conidia was spotted at the center of GMM plates containing DMSO or 1 µg/mL 1 in combination with DTT, brefeldin A, or tunicamycin. Plates were incubated at 37°C for 72 hours. Representative images of two independent experiments with three biological replicates each were obtained. For Ire1 strains, the cells were prepared as described above but were incubated at 30°C.

[1] = Pharmacokinetics in mice (serum/plasma and brain); assay type: in vivo, CD-1 mice; conditions: single 10 mg/kg intraperitoneal; for Cmax / half-life: female, CD-1, mouse, ip, CD1 mice; for half-life: read-out: half-life (T1/2)
Experimental: Twenty-one female CD-1 mice were dosed intraperitoneally with 10 mg/kg 1. Whole blood was collected in a syringe coated with ACD. Plasma was processed from whole blood by centrifugation at 10,000 rpm for 10 min. Brain tissue was harvested and gently washed with 1× PBS to remove residual circulating blood. The tissue was weighed and snap frozen in liquid nitrogen.
For the standards and quality controls, 98.0 and 98.8 µL of blank vendor plasma were added to a microfuge tube and spiked with 2.0 and 1.2 µL of initial standard. Standards, quality controls, and samples of 100 µL were then precipitated with 200 µL of methanol containing 0.15% formic acid and […]. The samples were vortexed 15 s, incubated at room temperature for 10 min, and centrifuged at 13,200 rpm twice in a standard microcentrifuge. The supernatant was then analyzed by LC-MS/MS. The vendor supplied the plasma used in standards and quality controls (QCs; lot # MSE460968, ACD anti-coagulant; Bioreclamation, LLC).
Brain tissues were homogenized in 3× volume of PBS. For the standards and quality control samples, 98.0 and 98.8 µL of pooled blank brain were added to a microfuge tube and spiked with 2.0 or 1.2 µL of initial standard. Standards, quality control samples of 100 µL, were then precipitated with 200 µL of methanol containing 0.15% formic acid and 12.5 ng/mL IS (final concentrations). The samples were vortexed for 15 s, incubated at room temperature for 10 min, and centrifuged at 13,200 rpm twice in a standard microcentrifuge. The supernatant was then analyzed by LC-MS/MS.

C. neoformans H99 = assay: Generation of resistant isolates (high-density plating, serial passaging); assay type: cell-based, Cryptococcus neoformans
Experimental: Finally, we attempted to generate resistant isolates to understand the rate of resistance and potentially uncover mechanism of action. First, to determine spontaneous rates, we performed high-density plating (~2 × 10^9 cells) of C. neoformans on YPD plates containing 64 µg/mL 1 ([24]). […] Next, we employed serial passaging of both C. neoformans H99 and Saccharomyces cerevisiae BY4741 to evaluate evolved resistance upon exposure to sub-MIC concentrations. Yeast cells were grown in a 96-well format in the presence of 1/4 MIC 1, then cultures were passaged to fresh media containing a twofold increase in drug concentration. At each passage, the inoculum was diluted ~1:100 to allow ~10 generations of growth for a total of at least 50 generations over the course of the experiment.

A. fumigatus biofilms = assay: A. fumigatus hyphal (biofilm) activity, resazurin; assay type: cell-based, Aspergillus fumigatus; conditions: conidia germinated 14 hours
Experimental: To determine antifungal activity against A. fumigatus hyphae, a 96-well plate was inoculated with 1 × 10^3 conidia per well in 100 µL RPMI + MOPS with the edge wells filled with 200 µL sterile water to minimize edge effects. Plates were incubated at 37°C for 14 hours. A twofold dilution series of 1 or 7 was prepared in RPMI + MOPS at 2× concentration with 0.002% resazurin, then 100 µL of the drug was added to wells, and plates were incubated for an additional 24 hours. Fluorescence was measured with an excitation wavelength of 570 nm and an emission wavelength of 615 nm. Data are representative of two independent experiments performed in biological triplicate.

Hog1 = assay: Western blotting for total and phosphorylated Hog1; assay type: cell-based, Cryptococcus neoformans
Experimental: C. neoformans H99 overnight cultures were diluted to OD = 0.1 in YPD and incubated at 30°C for 3 hours with shaking. Cultures were split into four subcultures and treated with DMSO or 1 µg/mL 1 (two each) for 2 hours at 30°C, then water or 1 M NaCl was added to one culture of each treatment and incubated for an additional 30 min at 30°C. Cell pellets were snap frozen and stored at −80°C. Protein was extracted in extraction buffer (10 mM HEPES, pH 7.4–7.9, 1.5 mM MgCl2, 10 mM KCl, 1 mM DTT, 1× HALT protease and phosphatase inhibitor cocktail) by bead beading for 30 s on 60 s off with incubation on ice five times. The supernatant was removed from glass beads, and protein concentration was quantified by Bradford protein assay. Twenty micrograms of protein was loaded on a 10% SDS-PAGE gel and run at 80 V. Samples were transferred to nitrocellulose membrane for 1 hour at 100 V, then the membrane was stained with Ponceau for 15 min at RT. Membranes were blocked with 5% bovine serum albumin (BSA) in Tris-buffered saline with Tween 20 (TBST) for 1 hour at room temperature, then incubated with 1:10,000 rabbit anti-p-p38 (Phospho-p38 MAPK, # 9211; Cell Signaling) in 5% BSA/TBST or 1:5,000 custom Hog1 antibody # R02361 (GenScript) overnight at 4°C. […]

C. auris = assay: MIC testing (CLSI broth dilution); assay type: cell-based, Candida auris; conditions: Candidozyma auris, CLSI conditions
Experimental: MICs were determined using Clinical and Laboratory Standards Institute guidelines ([48], [49]). All yeasts were cultured overnight in 3 mL YPD at 30°C, then washed twice in sterile phosphate-buffered saline (PBS). Twofold serial dilutions of each drug were prepared in RMPI + MOPS, then 1 × 10^3 cells were added per well. For mold species, wells were inoculated with 1.25 × 10^3 conidia per well. Plates were incubated at 37°C for 24 (Candida spp. and S. cerevisiae), 48 (Aspergillus spp., M. circinelloides, S. apiospermum, and L. prolificans), or 72 (C. neoformans and F. oxysporum) hours. S. cerevisiae BY4743 MICs were tested in YPD due to nutritional requirements of this strain. Each assay was performed in technical duplicate in at least two independent experiments performed on different days.

OC1CC(c2cc(N3CCC(CCc4ccccc4)CC3)ncn2)C1 (stereo not shown) [compound 1]
interaction with DTT (A. fumigatus CEA10; 37°C, 72 hours): synergistic
interaction with brefeldin A (A. fumigatus CEA10; 37°C, 72 hours): modest antagonism
interaction with tunicamycin (A. fumigatus CEA10; 10 µg/mL tunicamycin): slight antagonism
interaction with tunicamycin (A. fumigatus CEA10; 50 µg/mL tunicamycin): no interaction
time of Cmax post-administration ([1]; brain tissue): 10 min
Cmax ([1]; brain tissue): 2000 ng/g
half-life ([1]; brain tissue): 4.92 h
Cmax ([1]; serum/plasma): 491 ng/mL
half-life ([1]; serum/plasma): 0.383 h
time of Cmax post-administration ([1]; serum): 10 min
blood-brain barrier penetration ([1]; mice): penetrated the blood-brain barrier
evolved resistance, serial passaging (C. neoformans H99; from 1/4 MIC, twofold increases, at least 50 generations): did not recover stable resistance
spontaneous resistance, high-density plating (C. neoformans H99; ~2 × 10^9 cells on YPD with 64 µg/mL 1): unable to isolate resistant colonies
IC50 (A. fumigatus biofilms; Aspergillus fumigatus, then treated 24 hours, read-out: IC50 of hyphal growth): 1.66 µg/mL (≈ 4.92 µM)
inhibition of hyphal growth (A. fumigatus biofilms; escalating doses 24 hours): dose-dependent inhibition of hyphal growth
Hog1 phosphorylation (Hog1; 1 µg/mL 1 alone for 2 hours at 30°C): activation of Hog1 via phosphorylation
Hog1 phosphorylation, combination with salt (Hog1; 1 µg/mL 1 for 2 hours, then 1 M NaCl 30 min): additive
MIC (C. auris; strain 0390): > 128 µg/mL
MIC (C. auris; strain 3081, drug-resistant clinical isolate): 8 µg/mL (≈ 23.7 µM)
